Bridge positions count the residues as written; N and C are the ends. Square brackets hold non-standard residues; d marks the D form. Peptide text beside a SMILES is read from it. * marks the point of attachment. ξ: configuration not given here. Phe(3-CF3) = N[C@@H](Cc1cccc(C(F)(F)F)c1)C(=O)O; Ala(morpholin-4-yl) = N[C@@H](CN1CCOCC1)C(=O)O; Phe(4-COOH) = N[C@@H](Cc1ccc(C(=O)O)cc1)C(=O)O; Bip = N[C@@H](Cc1ccc(-c2ccccc2)cc1)C(=O)O; NH(CH2)14COOH = O=C(O)CCCCCCCCCCCCCCN*; Phe(3-Me) = Cc1cccc(C[C@H](N)C(=O)O)c1; NH(CH2)12COOH = O=C(O)CCCCCCCCCCCCN*; Val(3-OH) = CC(C)(O)[C@H](N)C(=O)O; hArg = N=C(N)NCCCC[C@H](N)C(=O)O; 4Pal = N[C@@H](Cc1ccncc1)C(=O)O; Cha = N[C@@H](CC1CCCCC1)C(=O)O; Cit = NC(=O)NCCC[C@H](N)C(=O)O; Thr(3ξ) = CC(O)[C@H](N)C(=O)O; Pen = CC(C)(S)[C@H](N)C(=O)O; 12Ado = NCCCCCCCCCCCC(=O)O; Carboxymethyl = O=C(O)C*; Orn = NCCC[C@H](N)C(=O)O; Aun = NCCCCCCCCCCC(=O)O; Dab = NCC[C@H](N)C(=O)O; Dap = NC[C@H](N)C(=O)O; AEEA = NCCOCCOCC(=O)O
Biological target: T1, PD-1/PD-L1 interaction (PE-labeled human PD-L1-Ig binding to Jurkat cell line over-expressing human PD-1) (Homo sapiens, UniProt Q15116)
T1 construct: expressed in transfected cells; host or cells: Jurkat
T1 sequence (Q15116 25-288): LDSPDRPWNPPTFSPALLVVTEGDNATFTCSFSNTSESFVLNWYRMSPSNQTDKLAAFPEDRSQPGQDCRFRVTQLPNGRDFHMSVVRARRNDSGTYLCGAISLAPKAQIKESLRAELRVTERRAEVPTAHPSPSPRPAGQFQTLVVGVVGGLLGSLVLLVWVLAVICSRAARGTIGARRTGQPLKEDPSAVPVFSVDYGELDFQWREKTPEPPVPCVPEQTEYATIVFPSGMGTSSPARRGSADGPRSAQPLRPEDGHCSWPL
Experiment: Jurkat-PD-1 Cell Binding High-Content Screening Assay (CBA)
Assay type: cell-based
Conditions: Jurkat cell line over-expressing human PD-1; PE-labeled PD-L1-Ig 20 nM final; read-out: Jurkat hPD1-PDL1 IC50
Procedure, shortened: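 Jurkat cells stably over-expressing human PD-1 were seeded in DMEM with 10% fetal calf serum and pre-incubated with compound for 2 h at 37° C. PE-labeled human PD-L1-Ig was then added at 20 nM final for 1 hour, after which cells were fixed with paraformaldehyde, Hoechst-stained and imaged by high-content microscopy.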

Row | Structure (SMILES) | IC50 [nM]
1 | CC(C)C[C@H]1NC(=O)[C@H](CCCN)NC(=O)[C@H](Cc2ccc(C(=O)O)cc2)NC(=O)[C@H](Cc2ccc(-c3ccccc3)cc2)NC(=O)[C@H](Cc2ccc(C(=O)O)cc2)NC(=O)[C@H](Cc2cccc(C(F)(F)F)c2)NC(=O)[C@H](CC(=O)O)NC(=O)[C@H](Cc2ccc(OCC(=O)O)cc2)NC(=O)[C@H](CN2CCOCC2)NC(=O)CSC[C@@H](C(=O)N[C@@H](CCN)C(=O)NCCOCCOCC(=O)NCCOCCOCC(=O)NCCCCCCCCCCCCC(=O)O)NC(=O)[C@H](CO)NC(=O)[C@H](C(C)(C)O)NC(=O)[C@H](CC2CCCCC2)NC(=O)[C@H](CCN)NC1=O [Compound 2914] ({CH2CO}-[Ala(morpholin-4-yl)]Y(Carboxymethyl)D[Phe(3-CF3)][Phe(4-COOH)][Bip][Phe(4-COOH)][Orn][dL][Dab][Cha][Val(3-OH)]SC[Dab][AEEA][AEEA]-{NH(CH2)12COOH}; thioether N-14) | 24
2 | CC(=O)NCCCC[C@@H]1NC(=O)[C@H](C(C)(C)O)NC(=O)[C@H](CC2CCCCC2)NC(=O)[C@H](CCN)NC(=O)[C@@H](CC(C)C)NC(=O)[C@H](CCCN)NC(=O)[C@H](Cc2ccc(OCC(=O)O)cc2)NC(=O)[C@H](Cc2ccc(-c3ccccc3)cc2)NC(=O)[C@H](Cc2ccc(OCC(=O)O)cc2)NC(=O)[C@H](Cc2cccc(C(F)(F)F)c2)NC(=O)[C@H](CC(=O)O)NC(=O)[C@H](Cc2ccc(OCC(=O)O)cc2)NC(=O)[C@H](Cc2ccc(OCC(=O)O)cc2)NC(=O)CSC[C@@H](C(=O)N[C@@H](CCN)C(=O)NCCOCCOCC(=O)NCCCCCCCCCCCCCCC(=O)O)NC1=O [Compound 3850] ({CH2CO}-Y(Carboxymethyl)Y(Carboxymethyl)D[Phe(3-CF3)]Y(Carboxymethyl)[Bip]Y(Carboxymethyl)[Orn][dL][Dab][Cha][Val(3-OH)]K(Ac)C[Dab][AEEA]-{NH(CH2)14COOH}; thioether N-14) | 282
3 | CC(C)C[C@H]1NC(=O)[C@H](CCCN)NC(=O)[C@H](C(C)C)NC(=O)[C@H](Cc2ccc(-c3ccccc3)cc2)NC(=O)[C@H](C(C)C)NC(=O)[C@H](Cc2c[nH]c3ccccc23)NC(=O)[C@H](CC(=O)O)NC(=O)[C@H](Cc2ccc(OCC(=O)O)cc2)NC(=O)[C@H](CCCCNC(=N)N)NC(=O)CSC[C@@H](C(=O)NCC(=O)N[C@@H](CCCN)C(=O)NCCCCCCCCCCCC(=O)O)NC(=O)[C@H](CN)NC(=O)[C@H](C(C)C)NC(=O)[C@H](CC2CCCCC2)NC(=O)[C@H](CCN)NC1=O [Compound 3175] ({CH2CO}-[hArg]Y(Carboxymethyl)DWV[Bip]V[Orn][dL][Dab][Cha]V[Dap]CG[Orn][12Ado]-OH; thioether N-14) | 17.7
4 | Cc1cccc(C[C@@H]2NC(=O)[C@H](CC(=O)O)NC(=O)[C@H](Cc3ccc(OCC(=O)O)cc3)NC(=O)[C@H](CN)NC(=O)CSC(C)(C)[C@@H](C(=O)N[C@@H](C)C(=O)N[C@@H](CCC(=O)O)C(=O)NCCCCCCCCCCC(=O)O)NC(=O)[C@H]([C@@H](C)O)NC(=O)[C@H](C(C)C)NC(=O)[C@H](CC3CCCCC3)NC(=O)[C@H](CCN)NC(=O)[C@@H](CC(C)C)NC(=O)[C@H](CCCN)NC(=O)[C@H](CCCNC(N)=O)NC(=O)[C@H](Cc3ccc(-c4ccccc4)cc3)NC(=O)[C@H](C(C)C)NC2=O)c1 [Compound 2782] ({CH2CO}-[Dap]Y(Carboxymethyl)D[Phe(3-Me)]V[Bip][Cit][Orn][dL][Dab][Cha]VT[Pen]AE[Aun]-OH; thioether N-14) | 336
5 | CC(=O)NCCCC[C@@H]1NC(=O)[C@H](C(C)C)NC(=O)[C@H](CC2CCCCC2)NC(=O)[C@H](CCN)NC(=O)[C@@H](CC(C)C)NC(=O)[C@H](CCCN)NC(=O)[C@H](C(C)C)NC(=O)[C@H](Cc2ccc(-c3ccccc3)cc2)NC(=O)[C@H](C(C)C)NC(=O)[C@H](Cc2cccc(C)c2)NC(=O)[C@H](CC(=O)O)NC(=O)[C@H](Cc2ccc(OCC(=O)O)cc2)NC(=O)[C@H](C(C)O)NC(=O)CSC[C@@H](C(=O)N[C@H](CCC(N)=O)C(=O)NCCCCCCCCCCC(=O)O)NC1=O (stereo partly drawn) [Compound 3447] ({CH2CO}-[Thr(3ξ)]Y(Carboxymethyl)D[Phe(3-Me)]V[Bip]V[Orn][dL][Dab][Cha]VK(Ac)C[dQ][Aun]-OH; thioether N-14) | 10.5

Stronger by IC50, values ahead:

Row | IC50 [nM] | Structure (SMILES)
6 | 10 | CC(=O)NCCCC[C@@H]1NC(=O)[C@H](Cc2ccc(-c3ccccc3)cc2)NC(=O)[C@H](Cc2ccc(O)cc2)NC(=O)[C@H](Cc2cccc(C)c2)NC(=O)[C@H](CC(=O)O)NC(=O)[C@H](Cc2ccc(OCC(=O)O)cc2)NC(=O)[C@H](CCCNC(=N)N)NC(=O)CSC[C@@H](C(=O)N[C@H](CC(N)=O)C(=O)NCCCCCCCCCCC(=O)O)NC(=O)[C@H](C(C)O)NC(=O)[C@H](C(C)C)NC(=O)[C@H](CC2CCCCC2)NC(=O)[C@H](CCN)NC(=O)[C@@H](CC(C)C)NC(=O)[C@H](CCCNC(N)=O)NC1=O (stereo partly drawn) [Compound 3541] ({CH2CO}-RY(Carboxymethyl)D[Phe(3-Me)]Y[Bip]K(Ac)[Cit][dL][Dab][Cha]V[Thr(3ξ)]C[dN][Aun]-OH; thioether N-14)
7 | 8.3 | Cc1cccc(C[C@@H]2NC(=O)[C@H](CC(=O)O)NC(=O)[C@H](Cc3ccc(OCC(=O)O)cc3)NC(=O)[C@H](Cc3ccncc3)NC(=O)CSC[C@@H](C(=O)N[C@@H](CCN)C(=O)NCCOCCOCC(=O)NCCCCCCCCCCC(=O)O)NC(=O)[C@H](CCCN)NC(=O)[C@H](C(C)C)NC(=O)[C@H](CC3CCCCC3)NC(=O)[C@H](CCN)NC(=O)[C@@H](CC(C)C)NC(=O)[C@H](CCCN)NC(=O)[C@H](Cc3ccc(O)cc3)NC(=O)[C@H](Cc3ccc(-c4ccccc4)cc3)NC(=O)[C@H](C(C)C)NC2=O)c1 [Compound 2705] ({CH2CO}-[4Pal]Y(Carboxymethyl)D[Phe(3-Me)]V[Bip]Y[Orn][dL][Dab][Cha]V[Orn]C[Dab][AEEA][Aun]-OH; thioether N-14)
8 | 8.2 | CC(C)C[C@H]1NC(=O)[C@H](CCCN)NC(=O)[C@H](C(C)C)NC(=O)[C@H](Cc2ccc(-c3ccccc3)cc2)NC(=O)[C@H](C(C)C)NC(=O)[C@H](Cc2c[nH]c3ccccc23)NC(=O)[C@H](CC(=O)O)NC(=O)[C@H](Cc2ccc(OCC(=O)O)cc2)NC(=O)[C@H](Cc2ccc(OCC(=O)O)cc2)NC(=O)CSC[C@@H](C(=O)NCCOCCOCC(=O)N[C@@H](CCCCN)C(=O)NCCCCCCCCCCC(=O)O)NC(=O)[C@H](CCCN)NC(=O)[C@H](C(C)C)NC(=O)[C@H](CC2CCCCC2)NC(=O)[C@H](CCN)NC1=O [Compound 2599] ({CH2CO}-Y(Carboxymethyl)Y(Carboxymethyl)DWV[Bip]V[Orn][dL][Dab][Cha]V[Orn]C[AEEA]K[Aun]-OH; thioether N-14)
9 | 7.7 | CC(C)C[C@H]1NC(=O)[C@H](CCCN)NC(=O)[C@H](C(C)C)NC(=O)[C@H](Cc2ccc(-c3ccccc3)cc2)NC(=O)[C@H](C(C)C)NC(=O)[C@H](Cc2c[nH]c3ccccc23)NC(=O)[C@H](CC(=O)O)NC(=O)[C@H](Cc2ccc(C(=O)O)cc2)NC(=O)[C@H](CCCNC(=N)N)NC(=O)CSC[C@@H](C(=O)NCC(=O)NCCOCCOCC(=O)N[C@@H](CCCN)C(=O)NCCCCCCCCCCC(=O)O)NC(=O)[C@H](CO)NC(=O)[C@H](C(C)C)NC(=O)[C@H](CC2CCCCC2)NC(=O)[C@H](CCN)NC1=O [Compound 3231] ({CH2CO}-R[Phe(4-COOH)]DWV[Bip]V[Orn][dL][Dab][Cha]VSCG[AEEA][Orn][Aun]-OH; thioether N-14)
